A melting point compilation (Tetko et al.)

Details: a range is the spread between reports

Structure (SMILES) | melting point [°C]
CS(C)(=O)=O | 109 to 110
C1CCNCC1 | -11 to -7
CC(CCC(=O)O)C1CCC2C3C(O)CC4CC(O)CCC4(C)C3CC(O)C12C (stereo not drawn) | 198 to 201
CC(C)C=O | -65.9 to -65
CCCCCCCCCCCCCCCCCC(=O)OC | 39.1 to 40
CCC=O | -81 to -80
O=CN1CCOCC1 | 21 to 22
C=CCC1CCCC1 | -111
CC(=O)CCC(C)=O | -7 to -5.5
OCCCCCO | -18 to -16
CCCCCCCI | -48.2 to -48
O=[N+]([O-])c1cc([N+](=O)[O-])c(F)cc1F | 73 to 74
O=C(O)Cc1cccc(Cl)c1 | 78 to 79
C=C(C)C(C)C | -157
C=C(C)CCCCCC | -78 to -77.8
C=CCC(C)C | -154 to -153
NCCCCCO | 35 to 38.5
CCCCCCCCCCCCCCCC(=O)OC(C)C | 12 to 13.5
CCCCCCCC(=O)O | 15.8 to 17
Cc1ccc(N)cc1 | 43 to 44
O=C(O)c1c(F)c(F)c(F)c(F)c1F | 101 to 102
O=[N+]([O-])c1cc(Cl)ccc1O | 87 to 89
BrCC(Br)Br | -29.3 to -29
COc1ccc(OC)c(C=O)c1 | 49 to 52
CC(C)c1ccc(Cl)cc1 | -12.3 to -12

Structure (SMILES) | melting point [°C]
N#CCC(N)=O | 120 to 122
NCC(CC(=O)O)c1ccc(Cl)cc1 (stereo not drawn) | 207 to 208
CC(=O)O[Si](C)(OC(C)=O)OC(C)=O | 40.5 to 43
C=C(Cl)C(=O)O | 65 to 66
CC(C)=O | -95 to -94
Fc1cc(F)c(F)cc1F | 4 to 4.5
O=C(O)C(F)(F)C(F)(F)C(F)(F)C(F)(F)C(F)(F)C(F)(F)C(F)(F)F | 54.3 to 55.5
CC(C)CCC(C)(C)C | -106
C[C@H]1CC[C@@H](O)CC1 | -10 to -9.2
CCCCCCCC1CCCCC1 | -31 to -30
CCCCS(=O)CCCC | 32.6 to 33
CC(C)CBr | -119 to -117
O=C(O)CC(S)C(=O)O (stereo not drawn) | 149 to 152
O=[N+]([O-])c1cccc(O)c1 | 94 to 98
BrC(Br)Br | 8 to 9
N#Cc1ccc(N)cc1 | 84 to 85
CC(C)C(C)C | -129 to -128
O=S=O | -73 to -72
Clc1ccc(Cl)c(Cl)c1Cl | 47 to 47.5
CC(C)CC(N)=O | 136 to 137
ClCCl | -97 to -95
CCCCCCCCCCCCCCCCCCO | 58 to 61
CN1CCC(O)CC1 | 28 to 29
Clc1ccc(C(c2ccccc2Cl)C(Cl)(Cl)Cl)cc1 (stereo not drawn) | 74.2 to 75
Nc1ccc(Cl)cc1 | 70 to 72.5

Structure (SMILES) | melting point [°C]
CCCCCCCCS | -49.2 to -49
N#CCCc1ccccc1 | -2 to -1
OCC(F)F | -28.2 to -28
OC(c1ccc(Cl)cc1)(c1ccc(Cl)cc1)C(Cl)(Cl)Cl | 77.5 to 78.5
Cc1nnc(N)s1 | 224 to 225
Brc1ccc(Br)c(Br)c1 | 42 to 44.5
C=CCC | -185
NCCCCCCCN | 28 to 28.9
Nc1ccc([N+](=O)[O-])cc1 | 146 to 150
CC#N | -48 to -43.8
O=P(Oc1ccccc1)(Oc1ccccc1)Oc1ccccc1 | 50 to 50.5
S=C=Nc1ccc(Br)cc1 | 58 to 60.5
O=[N+]([O-])c1cc([N+](=O)[O-])c2ccccc2c1 | 147 to 148
c1ccc2c(c1)CCCC2 | -36 to -31
Nc1cccc2ccccc12 | 48 to 49.2
CCCCCCCCCC(=O)O | 31 to 32
CCCC1CCCC1 | -117
CC(C)=CCN1CCC2(C)c3cc(O)ccc3CC1C2C (stereo not drawn) | 146
CCCI | -101
CC(=O)N1CCOCC1 | 10 to 14.5
C1CCCC1 | -94 to -93.8
OC1C2CCC(C2)C1O (stereo not drawn) | 139 to 141
CCOc1ccc(C(C)(C)COCc2cccc(Oc3ccccc3)c2)cc1 | 36 to 37
O=C(O)c1cc(Cl)ccc1Cl | 152 to 156
O=C(O)CCCCCCCC(=O)O | 102 to 106

Next, values leading:

melting point [°C] | Structure (SMILES)
19 to 20.5 | CC(=O)c1ccccc1
-15 to -12 | COC(=O)c1ccccc1
46 to 48.5 | O=Cc1ccc(Cl)cc1
46 to 49.5 | Cc1ccc(-c2ccccc2)cc1
122 | O=C(O)c1ccoc1
124 to 128 | NNC(=O)Nc1ccccc1
78 to 80 | OCC(O)COc1ccc(Cl)cc1 (stereo not drawn)
151 to 153 | Cc1ccc(O)c(C(=O)O)c1
76 to 77 | O=C(O)[C@@H]1CCCN1C(=O)OCc1ccccc1
176 to 177 | NC(=O)c1ccccc1[N+](=O)[O-]
200 to 202 | NC(=O)c1ccc([N+](=O)[O-])cc1
13.3 to 14 | Brc1cnc2ccccc2c1
220 to 222 | O=C(O)c1cc2ccccc2cc1O
-59.5 to -57.8 | CC(C)(C)c1ccccc1
66 to 67 | CC(C)(C)C1=CC(=O)C=C(C(C)(C)C)C1=O
-63 to -62.6 | CCCCCCOC=O
37 to 41 | COc1ccccc1C(=O)c1ccccc1
30 to 31 | c1ccc2ocnc2c1
-7 to -6 | Cc1cccc(C)n1
31 to 33 | Cc1ccc(N)cc1F
32 to 36 | CC(C)(O)c1ccccc1
133 to 134 | COc1cccc(C(N)=O)c1
12 to 12.5 | Cc1ccc(CN)cc1
133 to 134 | [O-][S+](Cc1ccccc1)Cc1ccccc1

melting point [°C] | Structure (SMILES)
194 to 195 | CSc1ccc(C(=O)O)cc1
199 to 201 | CC(C)(C)c1ccc2oc(-c3ccc(-c4nc5cc(C(C)(C)C)ccc5o4)s3)nc2c1
132 to 134 | CN(C)C(=O)Nc1ccccc1
-8 to -7.6 | NCc1ccncc1
66 to 67 | Clc1cccnc1Cl
120 to 122 | Nc1cccc(N)n1
65 to 65.5 | CC(=O)Nc1cccc(C)c1
-53 to -52 | COCc1ccccc1
317 to 320 | c1ccc(-c2ccc(-c3ccc(-c4ccccc4)cc3)cc2)cc1
230 to 234 | O=C(O)c1ccc([N+](=O)[O-])c(O)c1
73 to 76 | CC(=O)c1ccc(Cl)c(Cl)c1
130 to 132 | Ic1ccc(I)cc1
52 to 54.3 | N#Cc1cccc(N)c1
50 to 52.5 | COc1ccc(N)cc1Cl
115 to 118 | O=C(c1ccccc1)c1ccc(C(F)(F)F)cc1
64 to 65.5 | COc1ccc(C(=O)c2ccccc2)c(O)c1
170 to 172 | O=c1c(O)c(-c2ccccc2)oc2ccccc12
43 to 44 | CCOc1ccccc1OCC
80 to 81.5 | Oc1cccc(Nc2ccccc2)c1
30 to 32 | Cc1cncnc1
111 to 113 | c1cc(-c2ccncc2)ccn1
49.5 to 50 | Cc1ccc(C)n1-c1ccccc1
106 to 107 | ClC1c2ccccc2CCc2ccccc21
112 to 113 | CCc1ccc(C(=O)O)cc1

melting point [°C] | Structure (SMILES)
92 to 94 | O=S(=O)(c1ccccc1)c1ccc(Cl)cc1
215 to 216 | CC(=O)Nc1ccc([N+](=O)[O-])cc1
70 to 73 | OCc1ccccc1Cl
-42 to -41.5 | Fc1ccccc1I
179 to 181 | Sc1nc2ccccc2s1
21 to 22 | Clc1ccc(Cl)c(I)c1
150 to 153 | COc1ccc2cc(OC)ccc2c1
46 to 47 | O=CNc1ccccc1
69 to 70 | Cc1c(Br)cc(Br)cc1Br
-64 to -63 | CCNc1ccccc1
18 to 19 | COc1ccc(N=C=S)cc1
49 to 49.5 | c1ccc(CSCc2ccccc2)cc1
246 to 251 | c1ccc(-c2c3ccccc3c(-c3ccccc3)c3ccccc23)cc1
75 to 76.5 | Cc1n[nH]cc1Br
-1 to 2 | Cc1cc(C)c(Br)c(C)c1
64.5 to 65 | Cn1nnc2ccccc21
189 to 191 | O=C(O)COc1ccccc1C(=O)O
114 to 115 | CC(=O)Nc1ccccc1
143 to 148 | O=C(O)COCC(=O)O
52 to 52.5 | O=C(c1ccccc1)c1cccc(C(F)(F)F)c1
70 to 71.5 | c1ccc(CSSCc2ccccc2)cc1
34 to 38 | CCN(CC)c1ccc(Br)cc1
73 to 74 | Cc1cc(Br)c(C)cc1Br
42 to 47 | CCOC(=O)c1cccc([N+](=O)[O-])c1

melting point [°C] | Structure (SMILES)
196 | CN(C)CCC=C1c2ccccc2CCc2ccccc21
93 to 94 | O=C(C[N+](=O)[O-])Nc1ccccc1
131 to 132 | O=[N+]([O-])c1cc([N+](=O)[O-])c2ccccc2c1O
237 to 238 | O=C(O)c1cccnc1
11 to 12 | Cc1cccc(O)c1
224 to 227 | N#Cc1ccc(C(N)=O)cc1
-9.3 to -9 | Brc1cccc(I)c1
-19.4 to -19 | CCCCOc1ccccc1
74 to 76.5 | COc1ccc([N+](=O)[O-])c(OC)c1
-50 to -49.5 | CCc1cccc(C)c1C
74 to 76.7 | OCCOc1ccc2ccccc2c1
153 to 158 | O=c1cc(-c2ccccc2)oc2c1ccc1ccccc12
123 to 124 | O=C(O)c1cccc(F)c1
105 to 106 | SC(c1ccccc1)(c1ccccc1)c1ccccc1
229 to 230 | CCn1cc(C(=O)O)c(=O)c2ccc(C)nc21
99 to 100 | N#Cc1ccc(Cl)c([N+](=O)[O-])c1
-5 to -2.4 | O=[N+]([O-])c1cccc(C(F)(F)F)c1
181 to 182 | O=C(O)c1ccc(CO)cc1
-62.8 to -62 | Cc1ccc(C)o1
73 to 73.5 | C=Cc1ccc(O)cc1
158 to 159 | CN(C)C(=O)Nc1ccc(Cl)c(Cl)c1
